Experimental data taken from ChEMBL document CHEMBL1201862, “PubChem BioAssay data set” (2004).
The source made the active and inactive calls.

Key:
[1] = target: Protein-tyrosine kinase 2-beta (Homo sapiens, UniProt Q14289);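 also: potency of inhibitors of PYK2 kinase phosphorylation of poly-GT substrate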
[2] = target: Voltage-gated inwardly rectifying potassium channel KCNH2 (Homo sapiens, UniProt Q12809); assay: hERG protection from proarrhythmic block, potency, dose response, cell-based, thallium flux (AID 2121); type: ADME
[3] = target: T1, Sphingosine 1-phosphate receptor 4 (Homo sapiens, UniProt O95977); assay: Late stage fluorescence dose response cell-based screening assay for antagonists of the Sphingosine 1-Phosphate Receptor 4 (S1P4). [Related pubchem assays: 1524 (Confirmation screen (S1P4 antagonists).), 1510 (Primary screen (S1P4 antagonists).), 1853 (Summary AID (S1P4 antagonists).), 1692 (Dose response screen (S1P4 antagonists).)]; type: functional
T1 sequence (O95977 whole entry): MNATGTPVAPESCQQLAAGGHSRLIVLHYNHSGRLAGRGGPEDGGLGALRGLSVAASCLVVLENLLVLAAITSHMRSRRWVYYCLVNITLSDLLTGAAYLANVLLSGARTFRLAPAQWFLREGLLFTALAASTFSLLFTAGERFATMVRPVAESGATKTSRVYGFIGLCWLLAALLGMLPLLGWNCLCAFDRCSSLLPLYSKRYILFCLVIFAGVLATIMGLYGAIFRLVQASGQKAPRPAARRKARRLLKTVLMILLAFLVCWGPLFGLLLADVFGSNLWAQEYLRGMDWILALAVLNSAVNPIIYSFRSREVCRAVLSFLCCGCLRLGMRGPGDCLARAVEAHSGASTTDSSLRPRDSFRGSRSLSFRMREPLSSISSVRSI

[4] = HepG2 cell cytotoxicity, dose response, cytotoxicity control, plate reader, cherry-pick, antagonist series (AID 743416); type: functional, cell-based
[5] = THP-1 cell cytotoxicity, dose response, cytotoxicity control for non-replicating M. tuberculosis project (AID 489025); type: functional
[6] = target: T2, High affinity choline transporter 1 (Homo sapiens, UniProt Q9GZV3); assay: CHT inhibitors, dose response, cell-based, 5-point CRC, membrane potential dye (AID 504840); type: functional
T2 sequence (Q9GZV3 whole entry): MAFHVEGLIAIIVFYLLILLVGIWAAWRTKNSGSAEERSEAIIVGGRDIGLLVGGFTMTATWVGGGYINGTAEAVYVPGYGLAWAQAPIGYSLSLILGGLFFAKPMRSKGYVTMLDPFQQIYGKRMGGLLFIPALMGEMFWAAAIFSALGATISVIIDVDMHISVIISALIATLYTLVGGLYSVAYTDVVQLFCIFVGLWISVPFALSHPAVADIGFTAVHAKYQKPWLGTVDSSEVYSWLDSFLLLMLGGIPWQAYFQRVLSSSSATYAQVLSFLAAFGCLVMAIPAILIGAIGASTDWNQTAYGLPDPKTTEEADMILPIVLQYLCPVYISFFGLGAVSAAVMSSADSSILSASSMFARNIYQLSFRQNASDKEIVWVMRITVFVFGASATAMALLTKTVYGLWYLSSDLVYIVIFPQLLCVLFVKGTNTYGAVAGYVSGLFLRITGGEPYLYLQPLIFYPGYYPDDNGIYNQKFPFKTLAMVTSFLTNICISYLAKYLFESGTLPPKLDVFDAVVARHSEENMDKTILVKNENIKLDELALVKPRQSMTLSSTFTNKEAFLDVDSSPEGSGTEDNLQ

[7] = target: Sphingosine 1-phosphate receptor 1 (Homo sapiens, UniProt P21453); type: functional;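 also: Tango beta-arrestin reporter U2OS cells stimulated with S1P near its EC80; inhibitor potency meaning antagonism of receptor activation by the natural agonist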
[8] = MC4R antagonists, dose response, counter-screen for LGR2 antagonist project, cell-based, plate reader, cherry pick (AID 743444); type: functional;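 also: transfected HEK 293 cells stimulated with alpha-MSH peptide; potency of inhibitors of the alpha-MSH evoked signal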
[9] = HEK293 cell cytotoxicity, dose response, cytotoxicity control, plate reader, cherry-picked samples (AID 743446); type: functional, cell-based
[10] = target: T1, Sphingosine 1-phosphate receptor 4; assay: Fluorescence dose response cell-based high throughput screening assay for antagonists of the Sphingosine 1-Phosphate Receptor 4 (S1P4). [Related pubchem assays: 1524 (Confirmation in triplicates.), 1510 (Primary screen.)]; type: functional
INS1 = assay: beta cell apoptosis inhibitors, cytokine rescue, dose response, luminescence, retest (AID 449756); type: functional, cell-based; settings: Rattus norvegicus;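 also: cell death triggered by IL-1 beta plus TNF-alpha plus IFN-gamma mixture; protective hits raise ATP signal compared with cytokine alone wells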
[11] = inhibitors of PGC1a acetylation in cells, dose response, cell-based, cherry-picked samples (AID 720514); type: functional;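 also: potency may reflect raised or lowered acetylation signal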
[12] = LGR2 antagonists, dose response, cell-based, HEK293, CRE-luciferase reporter, cherry pick, set 2 (AID 743343); type: functional;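 also: transfected cells were stimulated with diluted bursicon conditioned medium after compound addition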
[13] = target: Heat shock protein HSP 90-alpha (Homo sapiens, UniProt P07900); type: functional, organism-based
[14] = Luminescent dose response cell-based high throughput screening assay for inhibitors of the Janus kinase 2 mutant JAK2V617F. [Related pubchem assays: 1446 (Primary screen.), 1521 (Confirmation assay.), 1486 (Counter screen.)]; type: functional
[15] = A549 cell cytotoxicity, dose response, cytotoxicity control, plate reader, cherry-pick, antagonist series (AID 743412); type: functional, cell-based
Galanin receptor type 2 = Galanin receptor type 2 (Homo sapiens, UniProt O43603); assay: Dose Response cell-based high-throughput screening assay to identify antagonists of galanin receptor 2 (GALR2). [Related pubchem assays: 828, 866 ]; type: functional
BJ [16] = assay: cytotoxicity toward BJ-TERT fibroblasts, dose response, cell-based, RAS-independent, luminescence (AID 1933); type: functional; settings: Homo sapiens
BJ [17] = assay: cytotoxicity toward BJ-TERT-LT-ST fibroblasts, dose response, cell-based, RAS-independent, luminescence (AID 1935); type: functional; settings: Homo sapiens;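 also: BJ fibroblasts immortalized with TERT plus LT and ST oncogenes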
[18] = target: T3, Heat shock factor protein 1 (Mus musculus, UniProt P38532); assay: HSF1 potentiators in luciferase reporter cells, confirmation, cell-based, NIH3T3, luminescence, dose retest (AID 435004); type: functional;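 also: stress induced by proteasome inhibitor MG132 added 30 min after compound; luciferase reporter driven by HSF1 response element in NIH3T3 cells; actives raise luminescence as potentiators of the MG132 stress response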
T3 sequence (P38532 whole entry): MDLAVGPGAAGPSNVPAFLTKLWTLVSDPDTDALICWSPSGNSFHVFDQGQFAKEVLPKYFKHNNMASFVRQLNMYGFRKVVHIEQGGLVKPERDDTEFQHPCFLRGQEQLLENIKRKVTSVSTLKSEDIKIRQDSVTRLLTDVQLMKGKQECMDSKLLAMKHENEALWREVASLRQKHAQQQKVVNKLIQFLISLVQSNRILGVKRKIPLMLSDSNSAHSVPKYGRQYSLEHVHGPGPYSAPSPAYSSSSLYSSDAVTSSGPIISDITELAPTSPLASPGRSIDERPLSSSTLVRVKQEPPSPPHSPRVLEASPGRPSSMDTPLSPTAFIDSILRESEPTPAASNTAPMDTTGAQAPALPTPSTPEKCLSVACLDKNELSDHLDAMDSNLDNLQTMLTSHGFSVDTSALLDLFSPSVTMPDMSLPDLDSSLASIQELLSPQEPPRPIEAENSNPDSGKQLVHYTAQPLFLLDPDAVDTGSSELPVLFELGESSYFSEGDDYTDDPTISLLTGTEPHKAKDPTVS

[19] = cytotoxicity toward DRD oncogenic fibroblasts, dose response, cell-based, non-viral oncogenic, luminescence (AID 1934); type: functional; settings: Homo sapiens
[20] = NIH-3T3 fibroblast cytotoxicity, dose response, cytotoxicity control, cell-based, fluorescence, Alamar Blue, secondary assay (AID 2327); type: functional;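 also: NIH-3T3 mouse fibroblasts cultured with fluconazole at 8 µg/mL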
[21] = target: G-protein coupled receptor 55 (Homo sapiens, UniProt Q9Y2T6); assay: GPR55 agonists via beta-arrestin recruitment, primary screen, imaging, U2OS cells, beta-arrestin-GFP redistribution (AID 1961); type: functional
[22] = C. albicans growth with fluconazole, confirmation, fluorescence, retest (AID 2467); type: functional, cell-based
BJ [23] = assay: cells; type: functional, cell-based; settings: Homo sapiens
[24] = target: T4, Microphthalmia-associated transcription factor (Homo sapiens, UniProt O75030); assay: TRPM1 promoter luciferase signal decrease, dose response, MITF inhibitor project, cell-based, SK-MEL-5, cherry-picked, set 3 (AID 493073); type: functional
T4 sequence (O75030 whole entry): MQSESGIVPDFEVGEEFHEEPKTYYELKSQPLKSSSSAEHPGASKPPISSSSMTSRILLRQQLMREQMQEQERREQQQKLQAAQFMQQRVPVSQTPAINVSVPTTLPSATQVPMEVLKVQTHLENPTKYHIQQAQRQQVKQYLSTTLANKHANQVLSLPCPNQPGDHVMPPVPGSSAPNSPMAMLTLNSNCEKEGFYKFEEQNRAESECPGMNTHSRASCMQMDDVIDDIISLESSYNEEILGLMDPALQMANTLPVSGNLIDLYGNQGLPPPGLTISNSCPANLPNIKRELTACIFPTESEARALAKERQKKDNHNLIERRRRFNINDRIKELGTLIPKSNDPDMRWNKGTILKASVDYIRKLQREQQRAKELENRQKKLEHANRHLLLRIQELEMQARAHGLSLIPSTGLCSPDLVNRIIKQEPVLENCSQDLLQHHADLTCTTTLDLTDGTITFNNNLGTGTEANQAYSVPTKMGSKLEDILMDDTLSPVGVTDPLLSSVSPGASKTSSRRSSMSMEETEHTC

[25] = Luminescence Cell-Based Dose Response to Identify Activators of Luciferase Translation or Activity in H4-C Neuroglioblastoma Cells. [Related pubchem assays: 1829 (Project Summary), 1814 (Primary HTS)]; type: functional
[26] = Luminescence Cell-Based Dose Response to Identify Activators of 5'UTR Stem-Loop Driven Prion Protein mRNA Translation in H4-C Neuroglioblastoma Cells. [Related pubchem assays: 1829 (Project Summary), 1814 (Primary HTS)]; type: functional
[27] = Luminescence Cell-Based Dose Confirmation to Identify Activators of 5'UTR Stem-Loop Driven Alpha-Synuclein mRNA Translation in H4 Neuroglioblastoma Cells. [Related pubchem assays: 1829 (Project Summary), 1814 (Primary HTS)]; type: functional
[28] = Luminescence Cell-Based Dose Response HTS to Identify Activators of Luciferase Translation or Activity in H4 […] Cells. [Related pubchem assays: 1829 (Project Summary), 1814 (Primary HTS)]; type: functional
H4 = assay: Luminescence Cell-Based Dose Response HTS to Identify Activators of 5'UTR Stem-Loop Driven Prion Protein mRNA Translation in H4 Neuroglioblastoma Cells. [Related pubchem assays: 1829 (Project Summary), 1814 (Primary HTS)]; type: functional; settings: Homo sapiens
[29] = target: Peroxisome proliferator-activated receptor gamma/Nuclear receptor corepressor 2 (Homo sapiens, UniProt P37231+Q9Y618); assay: Counterscreen for NR2E3 inverse agonists: TR-FRET-based biochemical high throughput dose response assay to identify inverse agonists of the interaction between peroxisome proliferator-activated receptor gamma (PPARg) and nuclear receptor co-repressor 2 (NCOR2).; type: functional
[30] = target: Photoreceptor-specific nuclear receptor (Homo sapiens, UniProt Q9Y5X4); assay: NR2E3 inverse agonists, dose response, biochemical, TR-FRET (AID 463256); type: functional
[31] = Fluorescence Cell-Based Dose Response to Identify Inhibitors of Thrombin Receptor-Activating Peptide SFLLRN-Mediated P-Selectin Induction on Platelets. [Related pubchem assays: 1663 (Primary HTS), 1889 (retest at dose ), 1891 (counterscreen), 1678 (Project Summary)]; type: functional
[32] = target: Luciferin 4-monooxygenase (Photinus pyralis, UniProt P08659); assay: firefly luciferase enzyme inhibitors, dose response, biochemical, luminescence (AID 1891)
[33] = Luminescence Cell-Based Dose Confirmation HTS to Identify Inhibitors of Platelet Dense Granule Release. [Related pubchem assays: 1663 (Primary HTS), 1678 (Summary of Project)]; type: functional
[34] = inhibitors of intracellular T. cruzi replication, confirmation, NIH3T3 host cells, beta-gal luminescence (AID 2044); type: functional, cell-based;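 also: intracellular parasites grown in NIH/3T3 mouse fibroblasts as host cells; luminescent beta-galactosidase reporter signal from transgenic T. cruzi replicating inside host cells; inhibitors lower the luminescence signal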
[35] = cytotoxicity toward NIH3T3 fibroblasts, dose response, counter-screen, cell-based, ATP luminescence, mouse fibroblasts (AID 2010); type: functional;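 also: cells exposed to compound for about 90 hours before reading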
Vero = assay: West Nile virus antiviral activity, cell-based, CPE readout (AID 1621); type: functional; settings: Chlorocebus sabaeus

Sequence of Photoreceptor-specific nuclear receptor (Q9Y5X4 whole entry): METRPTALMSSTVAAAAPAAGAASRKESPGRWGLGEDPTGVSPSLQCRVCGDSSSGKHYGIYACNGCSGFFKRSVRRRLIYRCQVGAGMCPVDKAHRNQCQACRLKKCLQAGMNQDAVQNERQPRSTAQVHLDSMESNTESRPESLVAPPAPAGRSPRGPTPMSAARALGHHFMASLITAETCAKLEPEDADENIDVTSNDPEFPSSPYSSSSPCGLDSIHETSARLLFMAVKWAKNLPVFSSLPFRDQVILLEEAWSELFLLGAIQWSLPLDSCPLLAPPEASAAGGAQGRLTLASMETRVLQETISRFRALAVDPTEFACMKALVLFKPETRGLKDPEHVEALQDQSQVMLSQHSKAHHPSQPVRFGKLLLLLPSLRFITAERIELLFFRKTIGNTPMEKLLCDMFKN
Sequence of Protein-tyrosine kinase 2-beta (Q14289 whole entry): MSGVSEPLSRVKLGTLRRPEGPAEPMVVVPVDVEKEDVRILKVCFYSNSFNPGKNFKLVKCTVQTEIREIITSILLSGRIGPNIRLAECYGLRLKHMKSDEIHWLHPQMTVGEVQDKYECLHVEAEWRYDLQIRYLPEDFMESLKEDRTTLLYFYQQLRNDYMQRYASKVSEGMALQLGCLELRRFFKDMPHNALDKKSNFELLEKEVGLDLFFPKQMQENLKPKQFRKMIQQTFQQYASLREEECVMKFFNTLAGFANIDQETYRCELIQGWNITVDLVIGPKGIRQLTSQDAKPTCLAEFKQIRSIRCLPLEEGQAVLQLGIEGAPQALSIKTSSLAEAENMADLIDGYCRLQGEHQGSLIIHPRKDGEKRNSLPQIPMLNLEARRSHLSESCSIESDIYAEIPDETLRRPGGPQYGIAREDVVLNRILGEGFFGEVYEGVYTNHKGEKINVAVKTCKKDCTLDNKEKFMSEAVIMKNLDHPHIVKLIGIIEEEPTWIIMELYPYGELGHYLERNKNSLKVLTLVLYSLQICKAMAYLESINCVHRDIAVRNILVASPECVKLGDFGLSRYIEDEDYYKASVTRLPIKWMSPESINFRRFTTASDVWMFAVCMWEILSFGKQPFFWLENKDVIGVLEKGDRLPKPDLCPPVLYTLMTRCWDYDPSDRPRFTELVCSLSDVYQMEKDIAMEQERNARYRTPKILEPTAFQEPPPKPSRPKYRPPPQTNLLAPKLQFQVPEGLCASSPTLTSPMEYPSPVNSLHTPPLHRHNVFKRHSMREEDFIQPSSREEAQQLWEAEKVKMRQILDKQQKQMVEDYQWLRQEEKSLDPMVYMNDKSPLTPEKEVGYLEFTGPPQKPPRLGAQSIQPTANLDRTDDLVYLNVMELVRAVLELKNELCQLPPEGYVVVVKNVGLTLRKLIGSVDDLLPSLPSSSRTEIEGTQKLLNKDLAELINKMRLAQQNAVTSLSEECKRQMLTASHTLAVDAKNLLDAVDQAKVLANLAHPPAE
Sequence of Peroxisome proliferator-activated receptor gamma/Nuclear receptor corepressor 2 (P37231 whole entry): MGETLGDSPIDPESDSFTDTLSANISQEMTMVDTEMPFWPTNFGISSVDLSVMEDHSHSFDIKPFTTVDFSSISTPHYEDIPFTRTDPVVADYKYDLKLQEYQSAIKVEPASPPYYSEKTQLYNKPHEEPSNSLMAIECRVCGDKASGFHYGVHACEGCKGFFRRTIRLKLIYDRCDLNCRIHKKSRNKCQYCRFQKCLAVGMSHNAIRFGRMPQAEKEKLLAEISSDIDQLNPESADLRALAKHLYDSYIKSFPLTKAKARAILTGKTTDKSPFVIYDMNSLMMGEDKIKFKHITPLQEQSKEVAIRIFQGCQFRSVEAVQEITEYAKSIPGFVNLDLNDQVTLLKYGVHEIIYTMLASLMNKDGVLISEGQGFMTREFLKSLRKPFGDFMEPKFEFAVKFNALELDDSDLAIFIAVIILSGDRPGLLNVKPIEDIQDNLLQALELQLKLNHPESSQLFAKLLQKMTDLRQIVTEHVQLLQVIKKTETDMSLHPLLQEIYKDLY
Sequence of Peroxisome proliferator-activated receptor gamma/Nuclear receptor corepressor 2 (Q9Y618 whole entry): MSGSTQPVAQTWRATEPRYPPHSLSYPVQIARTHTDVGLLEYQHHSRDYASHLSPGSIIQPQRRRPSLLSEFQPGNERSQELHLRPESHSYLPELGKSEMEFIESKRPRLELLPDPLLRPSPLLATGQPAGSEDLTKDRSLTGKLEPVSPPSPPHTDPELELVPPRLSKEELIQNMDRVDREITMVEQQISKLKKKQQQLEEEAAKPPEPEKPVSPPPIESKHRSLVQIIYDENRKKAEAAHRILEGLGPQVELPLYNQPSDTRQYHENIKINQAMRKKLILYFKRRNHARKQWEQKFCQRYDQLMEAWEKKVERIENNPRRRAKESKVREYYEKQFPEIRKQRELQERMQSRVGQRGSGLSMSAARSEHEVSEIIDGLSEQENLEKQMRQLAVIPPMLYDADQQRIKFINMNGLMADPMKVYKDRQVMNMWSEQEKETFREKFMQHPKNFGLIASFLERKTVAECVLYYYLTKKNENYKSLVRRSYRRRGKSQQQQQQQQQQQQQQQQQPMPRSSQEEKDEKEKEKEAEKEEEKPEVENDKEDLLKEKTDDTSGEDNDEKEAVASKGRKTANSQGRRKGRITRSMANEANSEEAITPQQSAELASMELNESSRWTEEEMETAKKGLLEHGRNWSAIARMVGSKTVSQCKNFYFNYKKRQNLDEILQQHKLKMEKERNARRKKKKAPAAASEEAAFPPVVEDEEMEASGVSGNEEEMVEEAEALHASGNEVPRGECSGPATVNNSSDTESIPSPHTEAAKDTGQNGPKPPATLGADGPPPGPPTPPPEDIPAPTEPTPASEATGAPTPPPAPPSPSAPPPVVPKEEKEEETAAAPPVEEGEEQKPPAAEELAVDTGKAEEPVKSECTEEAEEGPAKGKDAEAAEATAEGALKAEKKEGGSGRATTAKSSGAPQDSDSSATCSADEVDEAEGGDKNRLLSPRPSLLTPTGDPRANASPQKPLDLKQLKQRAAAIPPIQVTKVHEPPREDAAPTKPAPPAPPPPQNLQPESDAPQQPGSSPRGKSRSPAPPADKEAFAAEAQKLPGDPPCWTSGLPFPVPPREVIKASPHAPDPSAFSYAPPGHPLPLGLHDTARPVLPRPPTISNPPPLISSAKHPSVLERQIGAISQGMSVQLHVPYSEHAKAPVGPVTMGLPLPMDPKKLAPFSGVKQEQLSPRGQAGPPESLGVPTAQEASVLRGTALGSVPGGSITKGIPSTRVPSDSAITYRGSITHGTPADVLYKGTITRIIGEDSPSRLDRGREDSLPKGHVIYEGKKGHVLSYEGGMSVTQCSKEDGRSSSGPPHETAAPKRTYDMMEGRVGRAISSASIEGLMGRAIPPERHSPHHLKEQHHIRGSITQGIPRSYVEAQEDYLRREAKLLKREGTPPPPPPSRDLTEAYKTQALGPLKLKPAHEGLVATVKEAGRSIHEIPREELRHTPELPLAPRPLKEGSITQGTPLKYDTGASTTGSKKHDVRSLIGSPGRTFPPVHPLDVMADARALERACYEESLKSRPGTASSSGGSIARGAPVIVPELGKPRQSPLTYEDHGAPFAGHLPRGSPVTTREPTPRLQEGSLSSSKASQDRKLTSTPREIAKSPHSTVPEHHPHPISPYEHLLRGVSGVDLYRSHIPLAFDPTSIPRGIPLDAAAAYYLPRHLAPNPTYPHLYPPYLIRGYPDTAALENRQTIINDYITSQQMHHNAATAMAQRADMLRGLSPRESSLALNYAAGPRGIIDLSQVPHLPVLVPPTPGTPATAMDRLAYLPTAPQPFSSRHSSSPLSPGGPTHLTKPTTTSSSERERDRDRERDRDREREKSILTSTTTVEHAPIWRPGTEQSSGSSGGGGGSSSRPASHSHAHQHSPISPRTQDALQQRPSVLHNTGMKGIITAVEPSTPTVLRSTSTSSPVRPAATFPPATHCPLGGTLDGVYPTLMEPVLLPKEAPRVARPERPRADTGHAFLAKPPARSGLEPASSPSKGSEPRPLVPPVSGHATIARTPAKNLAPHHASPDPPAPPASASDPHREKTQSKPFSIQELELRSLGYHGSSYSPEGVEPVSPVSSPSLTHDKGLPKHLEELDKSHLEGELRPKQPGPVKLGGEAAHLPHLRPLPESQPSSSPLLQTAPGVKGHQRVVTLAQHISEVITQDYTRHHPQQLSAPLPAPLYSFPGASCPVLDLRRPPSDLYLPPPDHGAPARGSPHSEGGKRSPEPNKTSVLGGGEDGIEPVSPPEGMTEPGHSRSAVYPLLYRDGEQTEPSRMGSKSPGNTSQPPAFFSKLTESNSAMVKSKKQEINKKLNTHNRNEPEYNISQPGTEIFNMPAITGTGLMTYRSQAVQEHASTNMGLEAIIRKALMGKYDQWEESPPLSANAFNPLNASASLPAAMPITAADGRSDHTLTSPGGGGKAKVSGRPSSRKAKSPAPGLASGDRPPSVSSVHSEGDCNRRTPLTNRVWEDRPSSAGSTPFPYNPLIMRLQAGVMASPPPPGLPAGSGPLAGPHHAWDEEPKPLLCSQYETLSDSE
Sequence of G-protein coupled receptor 55 (Q9Y2T6 whole entry): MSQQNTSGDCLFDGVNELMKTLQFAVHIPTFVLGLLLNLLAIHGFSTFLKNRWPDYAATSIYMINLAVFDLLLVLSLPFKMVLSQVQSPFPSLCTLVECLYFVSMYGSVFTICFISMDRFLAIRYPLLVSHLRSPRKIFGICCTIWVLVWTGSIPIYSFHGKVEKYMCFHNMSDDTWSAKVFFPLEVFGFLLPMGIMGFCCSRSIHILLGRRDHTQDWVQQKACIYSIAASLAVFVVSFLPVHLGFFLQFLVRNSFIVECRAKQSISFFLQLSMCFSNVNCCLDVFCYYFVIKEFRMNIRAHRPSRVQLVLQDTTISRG

## COCCO/C(O)=C1\C(C)=NC2=C(C(=O)CC(c3cccs3)C2)C1c1ccsc1 (configuration not stated)
[1]
  IC50: > 69.5 µM (not active)

## COC(=O)c1ccc(CSc2ncnc3sc(C)c(C)c23)o1
[2]
  EC50: 11.1 µM (active)

## COc1ccc([N+](=O)[O-])c(S(=O)(=O)c2ccc(Cl)cc2)n1
[3]
  IC50: 1.15 µM (not active)
[4]
  AC50: 7.08 µM (active)
[5]
  CC50: 38.1 µM (active)
[6]
  IC50: 11 µM (active)
[7]
  IC50: 4.73 µM (active)
[8]
  AC50: 3.78 µM (active)
[9]
  AC50: 10 µM (active)
[10]
  IC50: 0.391 µM (active)
INS1
  AC50: 6.17 µM (active)
[11]
  AC50: 8.16 µM (active)
[12]
  AC50: 2.64 µM (active)
[13]
  AC50: 0.753 µM (active)
[14]
  IC50: 0.81 µM (active)
[15]
  AC50: 7.69 µM (active)

## CC(=O)SC(C[N+](=O)[O-])c1cn(C(C)=O)c2ccccc12 (configuration not stated)
Galanin receptor type 2
  IC50: 14.4 µM (not active)
BJ [16]
  EC50: 5.02 µM (inconclusive)
[6]
  IC50: 14.5 µM (active)
BJ [17]
  EC50: 6.21 µM (inconclusive)
[18]
  EC50: 6.84 µM (active)
[19]
  EC50: 6.74 µM (active)
[20]
  EC50: 12.9 µM (inconclusive)
[13]
  AC50: 1.48 µM (active)
[21]
  EC50: > 32 µM (inactive)
[22]
  EC50: 19.5 µM (active)
BJ [23]
  EC50: > 150 µM (inconclusive)
[24]
  AC50: 3.54 µM (active)

## Cc1ccc(C(=O)CSc2nsc(C)c2C#N)cc1
[25]
  EC50: 1.49 µM (active)
[26]
  EC50: 0.646 µM (active)
[27]
  EC50: 0.976 µM (active)
[28]
  EC50: < 0.1 µM (inconclusive)
H4
  EC50: > 120 µM (not active)

## Cc1ccc2[nH]c(CCN(C)C)c(CN3CCOCC3)c2c1
[29]
  IC50: 10.7 µM (not active)
[30]
  IC50: 6.09 µM (active)

## COc1ccccc1C(=O)Nc1cnc(O)nc1O
[31]
  EC50: < 0.3 µM (active)
[32]
  EC50: > 112 µM (not active)
[33]
  EC50: 0.25 µM (active)

## CCN1CCN(c2ccc(S(=O)(=O)N3CCCCC3)cc2NC(=O)Cc2c(Cl)cccc2Cl)CC1
[34]
  EC50: < 0.1 µM (active)
cells
  EC50: 0.06 µM (active)
[35]
  EC50: 49.2 µM (active)
Vero
  IC50: 27.1 µM (active)
